Patent US8722849B2, “Polypeptides” (Novo Nordisk A/S, priority 2011, dated 2014)
Starred links: 1 amine or outer side, 2 acyl side, 3 side chain; linkers in the order of their positions; H or OH if unused. Positions of bridges follow the written chain, without caps; N, C: chain ends. Residues, ends and D or L forms follow the SMILES beside them. *: point of attachment. C20 diacid = O=C(O)CCCCCCCCCCCCCCCCCCC(=O)*; C18 diacid = O=C(O)CCCCCCCCCCCCCCCCC(=O)*; γGlu = O=C(O)[C@H](CCC(=O)[*:2])N[*:1]

Tests used:
Format in all cases: cell-based
[1] = target: T1, human amylin receptor (amylin 3(a) receptor: human calcitonin receptor + RAMP-3) (Homo sapiens, UniProt O60896+P30988); experiment: Assay (II)a functional CRE-luciferase assay, human amylin receptor; conditions: Table 2; BHK amylin 3(a)-receptor/CRE-luc cells
T1 construct: expressed in transfected cells; host or cells: BHK570
T1 sequence (P30988 25-474): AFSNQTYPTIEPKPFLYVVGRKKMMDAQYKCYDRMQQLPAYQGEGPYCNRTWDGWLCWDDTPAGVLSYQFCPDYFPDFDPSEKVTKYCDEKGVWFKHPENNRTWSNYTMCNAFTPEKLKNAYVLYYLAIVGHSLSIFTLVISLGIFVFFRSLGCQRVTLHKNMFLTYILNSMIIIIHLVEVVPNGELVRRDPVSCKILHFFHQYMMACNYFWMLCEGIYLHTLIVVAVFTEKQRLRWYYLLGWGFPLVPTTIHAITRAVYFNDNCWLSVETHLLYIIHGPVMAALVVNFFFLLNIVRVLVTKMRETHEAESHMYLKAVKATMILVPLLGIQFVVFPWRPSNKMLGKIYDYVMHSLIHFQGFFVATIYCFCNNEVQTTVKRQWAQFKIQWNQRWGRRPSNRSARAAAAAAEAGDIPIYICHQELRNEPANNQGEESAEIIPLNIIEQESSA
T1 sequence (O60896 24-148 partner): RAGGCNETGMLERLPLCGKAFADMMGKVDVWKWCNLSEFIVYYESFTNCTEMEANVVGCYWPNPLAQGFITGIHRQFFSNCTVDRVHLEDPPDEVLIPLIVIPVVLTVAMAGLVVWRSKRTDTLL

[2] = target: T2, human calcitonin receptor (Homo sapiens, UniProt P30988); experiment: Assay (II)a functional CRE-luciferase assay, human calcitonin receptor; conditions: Table 7; human calcitonin (CTa) receptor
T2 construct: expressed in transfected cells; host or cells: BHK570
T2 sequence (P30988 25-474): T1 sequence (P30988 25-474)

[3] = target: T3, rat calcitonin (a) receptor (Rattus norvegicus, UniProt P32214); experiment: Assay (II)b functional cAMP FlashPlate assay, rat calcitonin receptor; conditions: Table 11; read-out: CTa receptor rat EC50
T3 construct: expressed in transfected cells; host or cells: BHK tk'ts 13
T3 sequence (P32214 25-479 isoform P32214-2 limits assumed): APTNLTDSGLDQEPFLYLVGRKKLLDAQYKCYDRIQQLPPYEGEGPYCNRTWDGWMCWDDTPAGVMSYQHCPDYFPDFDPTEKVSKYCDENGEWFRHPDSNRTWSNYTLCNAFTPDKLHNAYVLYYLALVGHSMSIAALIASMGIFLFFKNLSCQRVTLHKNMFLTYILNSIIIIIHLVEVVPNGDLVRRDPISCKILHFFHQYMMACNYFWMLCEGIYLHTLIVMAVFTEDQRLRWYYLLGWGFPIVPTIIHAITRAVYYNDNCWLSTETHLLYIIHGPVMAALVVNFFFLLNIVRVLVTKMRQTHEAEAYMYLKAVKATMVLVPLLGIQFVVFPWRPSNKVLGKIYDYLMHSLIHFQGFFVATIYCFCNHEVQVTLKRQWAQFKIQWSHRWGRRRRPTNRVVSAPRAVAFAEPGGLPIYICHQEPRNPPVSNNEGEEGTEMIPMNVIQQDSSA
Procedure, shortened: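 cAMP accumulation in transiently transfected BHK tk'ts 13 cells, 100.000 cells/well, expressing rat calcitonin(a) receptor or its RAMP3 co-expression form (amylin 3(a)): 30 min stimulation with IBMX, 24 hours post-transfection. Readout by competition of cellular versus radiolabelled cAMP in FlashPlates, scintillation counted after 3 h.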

`CC[C@H](C)[C@H](NC(=O)[C@@H]1CCCN1C(=O)CNC(=O)[C@H](Cc1ccccc1)NC(=O)[C@H](CC(N)=O)NC(=O)[C@H](CC(N)=O)NC(=O)[C@H](CO)NC(=O)[C@H](CO)NC(=O)[C@H](CCCNC(=N)N)NC(=O)[C@H](Cc1c[nH]cn1)NC(=O)[C@H](CC(C)C)NC(=O)[C@H](Cc1ccccc1)NC(=O)[C@H](CCC(=O)O)NC(=O)[C@H](C)NC(=O)[C@H](CC(C)C)NC(=O)[C@H](CCCNC(=N)N)NC(=O)[C@H](CCC(N)=O)NC(=O)[C@@H](NC(=O)[C@H](C)NC(=O)[C@@H]1CSSC[C@H](NC(=O)[C@H](Cc2c[nH]cn2)NC(=O)CC[C@H](NC(=O)CCCCCCCCCCCCCCCCCCC(=O)O)C(=O)O)C(=O)N[C@@H](CC(N)=O)C(=O)N[C@@H]([C@@H](C)O)C(=O)N[C@@H](C)C(=O)N[C@@H]([C@@H](C)O)C(=O)N1)[C@@H](C)O)C(=O)N[C@@H](CC(C)C)C(=O)N1CCC[C@H]1C(=O)N1CCC[C@H]1C(=O)N[C@H](C(=O)N[C@@H](CC(N)=O)C(=O)N[C@H](C(=O)NCC(=O)N[C@@H](CO)C(=O)N[C@@H](CC(N)=O)C(=O)N[C@H](C(=O)N[C@@H](Cc1ccc(O)cc1)C(N)=O)[C@@H](C)O)C(C)C)[C@@H](C)O` [Example 1, N-alpha-[(S)-4-Carboxy-4-(19-carboxynonadecanoylamino)butyryl]-[His1,Glu14,His17,Arg18]-pramlintide] ({C20 diacid-γGlu}-HCNTATCATQRLAEFLHRSSNNFGPILPPTNVGSNTY-NH2; disulfide 2-7 (inferred)) was tested. Which EC50 [1] did it give?
The EC50 was 0.0934 nM.

What about the EC50 [2] of the same compound?
The EC50 was 0.15 nM.

And the EC50 [3]?
The EC50 was 0.379 nM.

With `CC[C@H](C)[C@H](NC(=O)[C@@H]1CCCN1C(=O)CNC(=O)[C@H](Cc1ccccc1)NC(=O)[C@H](CC(N)=O)NC(=O)[C@H](CC(N)=O)NC(=O)[C@H](CO)NC(=O)[C@H](CO)NC(=O)[C@H](CCCNC(=N)N)NC(=O)[C@H](Cc1c[nH]cn1)NC(=O)[C@H](CC(C)C)NC(=O)[C@H](Cc1ccccc1)NC(=O)[C@H](CCC(=O)O)NC(=O)[C@H](C)NC(=O)[C@H](CC(C)C)NC(=O)[C@H](CCCNC(=N)N)NC(=O)[C@H](CCC(N)=O)NC(=O)[C@@H](NC(=O)[C@H](C)NC(=O)[C@@H]1CSSC[C@H](NC(=O)[C@H](CCC(=O)O)NC(=O)CC[C@H](NC(=O)CCCCCCCCCCCCCCCCCCC(=O)O)C(=O)O)C(=O)N[C@@H](CC(N)=O)C(=O)N[C@@H]([C@@H](C)O)C(=O)N[C@@H](C)C(=O)N[C@@H]([C@@H](C)O)C(=O)N1)[C@@H](C)O)C(=O)N[C@@H](CC(C)C)C(=O)N1CCC[C@H]1C(=O)N1CCC[C@H]1C(=O)N[C@H](C(=O)N[C@@H](CC(N)=O)C(=O)N[C@H](C(=O)NCC(=O)N[C@@H](CO)C(=O)N[C@@H](CC(N)=O)C(=O)N[C@H](C(=O)N1CCC[C@H]1C(N)=O)[C@@H](C)O)C(C)C)[C@@H](C)O` [Example 10, N-alpha-[(S)-4-Carboxy-4-(19-carboxynonadecanoylamino)butyryl]-[Glu1,Glu14,His17,Arg18,Pro37]-pramlintide] ({C20 diacid-γGlu}-ECNTATCATQRLAEFLHRSSNNFGPILPPTNVGSNTP-NH2; disulfide 2-7) as the compound, how does the EC50 [1] read?
The EC50 was 0.0823 nM.

What about the EC50 [2] of the same compound?
The EC50 was 0.0864 nM.

And the EC50 [3]?
The EC50 was 0.806 nM.

With `CC[C@H](C)[C@H](NC(=O)[C@@H]1CCCN1C(=O)CNC(=O)[C@H](Cc1ccccc1)NC(=O)[C@H](CC(N)=O)NC(=O)[C@H](CC(N)=O)NC(=O)[C@H](CO)NC(=O)[C@H](CO)NC(=O)[C@H](Cc1c[nH]cn1)NC(=O)[C@H](CCCNC(=N)N)NC(=O)[C@H](CC(C)C)NC(=O)[C@H](Cc1ccccc1)NC(=O)[C@H](CCC(=O)O)NC(=O)[C@H](C)NC(=O)[C@H](CC(C)C)NC(=O)[C@H](CCCNC(=N)N)NC(=O)[C@H](CCC(N)=O)NC(=O)[C@@H](NC(=O)[C@H](C)NC(=O)[C@@H]1CSSC[C@H](NC(=O)[C@H](CCCCN)NC(=O)CC[C@H](NC(=O)CCCCCCCCCCCCCCCCCCC(=O)O)C(=O)O)C(=O)N[C@@H](CC(N)=O)C(=O)N[C@@H]([C@@H](C)O)C(=O)N[C@@H](C)C(=O)N[C@@H]([C@@H](C)O)C(=O)N1)[C@@H](C)O)C(=O)N[C@@H](CC(C)C)C(=O)N1CCC[C@H]1C(=O)N1CCC[C@H]1C(=O)N[C@H](C(=O)N[C@@H](CC(N)=O)C(=O)N[C@H](C(=O)NCC(=O)N[C@@H](CO)C(=O)N[C@@H](CC(N)=O)C(=O)N[C@H](C(=O)N1CCC[C@H]1C(N)=O)[C@@H](C)O)C(C)C)[C@@H](C)O` [Example 53, N-alpha-[(S)-4-Carboxy-4-(19-carboxynonadecanoylamino)butyryl]-[Glu14,Arg17,Pro37]-pramlintide] as the compound, how does the EC50 [3] read?
The EC50 was 0.287 nM.

For `CC[C@H](C)[C@H](NC(=O)[C@@H]1CCCN1C(=O)CNC(=O)[C@H](Cc1ccccc1)NC(=O)[C@H](CC(N)=O)NC(=O)[C@H](CC(N)=O)NC(=O)[C@H](CO)NC(=O)[C@H](CO)NC(=O)[C@H](Cc1c[nH]cn1)NC(=O)[C@H](CCCNC(=N)N)NC(=O)[C@H](CC(C)C)NC(=O)[C@H](Cc1ccccc1)NC(=O)[C@H](CCC(=O)O)NC(=O)[C@H](C)NC(=O)[C@H](CC(C)C)NC(=O)[C@H](CCCNC(=N)N)NC(=O)[C@H](CCC(N)=O)NC(=O)[C@@H](NC(=O)[C@H](C)NC(=O)[C@@H]1CSSC[C@H](NC(=O)[C@H](CCCCN)NC(=O)[C@H](Cc2c[nH]cn2)NC(=O)CC[C@H](NC(=O)CCCCCCCCCCCCCCCCC(=O)O)C(=O)O)C(=O)N[C@@H](CC(N)=O)C(=O)N[C@@H]([C@@H](C)O)C(=O)N[C@@H](C)C(=O)N[C@@H]([C@@H](C)O)C(=O)N1)[C@@H](C)O)C(=O)N[C@@H](CC(C)C)C(=O)N1CCC[C@H]1C(=O)N1CCC[C@H]1C(=O)N[C@H](C(=O)N[C@@H](CC(N)=O)C(=O)N[C@H](C(=O)NCC(=O)N[C@@H](CO)C(=O)N[C@@H](Cc1c[nH]cn1)C(=O)N[C@H](C(=O)N[C@@H](Cc1ccc(O)cc1)C(N)=O)[C@@H](C)O)C(C)C)[C@@H](C)O` [Example 71, N-alpha-[(S)-4-Carboxy-4-(17-carboxyheptadecanoylamino)butyryl]-His-[Glu14,Arg17,His35]-pramlintide] ({C18 diacid-γGlu}-HKCNTATCATQRLAEFLRHSSNNFGPILPPTNVGSHTY-NH2; disulfide 3-8 (inferred); C-terminus assumed), which EC50 [1] is on record?
Its EC50 is 0.0795 nM.

What about the EC50 [2] of the same compound?
Its EC50 is 0.947 nM.

For `CC[C@H](C)[C@H](NC(=O)[C@@H]1CCCN1C(=O)CNC(=O)[C@H](Cc1ccccc1)NC(=O)[C@H](CC(N)=O)NC(=O)[C@H](CCC(N)=O)NC(=O)[C@H](CO)NC(=O)[C@H](CO)NC(=O)[C@H](Cc1c[nH]cn1)NC(=O)[C@H](Cc1c[nH]cn1)NC(=O)[C@H](CC(C)C)NC(=O)[C@H](Cc1ccccc1)NC(=O)[C@H](CCC(=O)O)NC(=O)[C@H](C)NC(=O)[C@H](CC(C)C)NC(=O)[C@H](CCCNC(=N)N)NC(=O)[C@H](CCC(N)=O)NC(=O)[C@@H](NC(=O)[C@H](C)NC(=O)[C@@H]1CSSC[C@H](NC(=O)[C@H](CCCCN)NC(=O)CC[C@H](NC(=O)CCCCCCCCCCCCCCCCCCC(=O)O)C(=O)O)C(=O)N[C@@H](CC(N)=O)C(=O)N[C@@H]([C@@H](C)O)C(=O)N[C@@H](C)C(=O)N[C@@H]([C@@H](C)O)C(=O)N1)[C@@H](C)O)C(=O)N[C@@H](CC(C)C)C(=O)N1CCC[C@H]1C(=O)N1CCC[C@H]1C(=O)N[C@H](C(=O)N[C@@H](CC(N)=O)C(=O)N[C@H](C(=O)NCC(=O)N[C@@H](CO)C(=O)N[C@@H](Cc1c[nH]cn1)C(=O)N[C@H](C(=O)N[C@@H](Cc1ccc(O)cc1)C(N)=O)[C@@H](C)O)C(C)C)[C@@H](C)O` [Example 117, N-alpha-[(S)-4-Carboxy-4-(19-carboxynonadecanoylamino)butyryl]-[Glu14,His17,Gln21,His35)-pramlintide] ({C20 diacid-γGlu}-KCNTATCATQRLAEFLHHSSQNFGPILPPTNVGSHTY-NH2; disulfide 2-7 (inferred); C-terminus assumed), which EC50 [1] is on record?
Its EC50 is 0.156 nM.

What about the EC50 [2] of the same compound?
Its EC50 is 0.169 nM.
